The record followed here is PubChem BioAssay (NCI).

The structures appear in SMILES notation.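 Each compound was tested at five concentrations against cells in 96-well plates for 48 hours. At the GI50, growth is halved. The concentration for full growth arrest is given as TGI.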

Among the test systems are LOX IMVI melanoma; SF-539 CNS; MDA-MB-435; MCF7 breast; U251 CNS; NCI-H23 lung; OVCAR-5 ovarian; SF-268 CNS; HCT-116 colon; HL-60(TB) leukemia.
Common to all, as to assay: NCI-60 cell line screen, 48 h

In the case of `O=C1Nc2ccc(F)c3c(OCCO)cc(-c4ccc[nH]4)c1c23`, the GI50 was 1.19 µM in the assay on LOX IMVI melanoma; 2.19 µM with SF-539 CNS; 1.46 µM with MDA-MB-435; 0.81 µM in the assay on MCF7 breast; 0.9 µM in the assay on U251 CNS; 1.27 µM in the assay with NCI-H23 lung. For the same compound, the GI50 in the assay with OVCAR-5 ovarian is 2.35 µM; in the assay with SF-268 CNS, 2.66 µM; with HCT-116 colon, 1.15 µM; in the assay with HL-60(TB) leukemia it was 1.14 µM. The TGI turned out to be 5.38 µM in the assay with LOX IMVI melanoma; 6.12 µM with SF-539 CNS; 14.1 µM in the assay on MDA-MB-435; 10.9 µM with MCF7 breast; 6.3 µM in the assay on U251 CNS; 8.05 µM in the assay with NCI-H23 lung. Besides, the TGI in the assay on OVCAR-5 ovarian turned out to be 10 µM; in the assay with SF-268 CNS it was 6.87 µM; with HCT-116 colon, 20.4 µM; in the assay with HL-60(TB) leukemia, 7.44 µM.

In the case of `C[C@@H]1O[C@@H](O[C@H]2C[C@@H](O)[C@]3(CO)C4C(CC[C@]3(O)C2)[C@@]2(O)CC[C@H](C3=CC(=O)OC3)[C@@]2(C)C[C@H]4O)[C@H](O)[C@H](O)[C@H]1O` (stereo not given in full), the GI50 in the assay with LOX IMVI melanoma was 0.0233 µM; in the assay with SF-539 CNS, 0.0185 µM; with MDA-MB-435, 0.0595 µM; in the assay with MCF7 breast, 0.0244 µM; in the assay on U251 CNS, 0.025 µM; in the assay with NCI-H23 lung it was 0.0163 µM. Besides, the GI50 is 0.0606 µM in the assay on OVCAR-5 ovarian, 0.0189 µM in the assay with SF-268 CNS, 0.0174 µM with HCT-116 colon and 0.013 µM with HL-60(TB) leukemia. Further, the TGI in the assay on LOX IMVI melanoma is 0.0882 µM; in the assay with SF-539 CNS, 0.0599 µM; in the assay with MDA-MB-435, 0.134 µM; in the assay with MCF7 breast, 0.121 µM; in the assay with U251 CNS it was 0.0839 µM; in the assay on NCI-H23 lung, 0.0602 µM. Further, the TGI with OVCAR-5 ovarian turned out to be 0.127 µM; in the assay with SF-268 CNS, 0.0642 µM; in the assay with HCT-116 colon, 0.056 µM; with HL-60(TB) leukemia it was 0.0318 µM.

Take `CCOc1ccc(NC(=O)Nc2cc(C(C)C)ccc2C)cc1`: the GI50 was 8.9 µM with LOX IMVI melanoma; 4.39 µM in the assay with SF-539 CNS; 17.6 µM in the assay on MDA-MB-435; 11.8 µM in the assay on MCF7 breast; 5.89 µM with U251 CNS; 16.4 µM in the assay with NCI-H23 lung. Further, the GI50 with OVCAR-5 ovarian was 11.9 µM; with SF-268 CNS it was 4.36 µM; with HCT-116 colon, 5.73 µM; with HL-60(TB) leukemia, greater than 57.9 µM. Further, the TGI with LOX IMVI melanoma is greater than 100 µM; in the assay with SF-539 CNS, 16.6 µM; in the assay with MDA-MB-435 it was greater than 100 µM; in the assay on MCF7 breast, greater than 57.8 µM; in the assay with U251 CNS it was 17.8 µM; in the assay with NCI-H23 lung, 98.1 µM. Also, the TGI was greater than 76 µM in the assay on OVCAR-5 ovarian, 14.7 µM in the assay with SF-268 CNS, 16.1 µM in the assay on HCT-116 colon and greater than 100 µM with HL-60(TB) leukemia.

`O=C(NO)c1ccc(C(=O)NO)cc1`: the TGI in the assay on LOX IMVI melanoma was greater than 100 µM; in the assay on SF-539 CNS, greater than 100 µM; in the assay on MDA-MB-435 it was greater than 100 µM; in the assay on MCF7 breast it was greater than 100 µM; in the assay with U251 CNS, 35.7 µM; with NCI-H23 lung, greater than 100 µM. In addition, the TGI in the assay with OVCAR-5 ovarian, in the assay with SF-268 CNS, in the assay with HCT-116 colon and with HL-60(TB) leukemia was greater than 100 µM throughout.

With `CO/N=C(\c1ccccc1)c1cnn(-c2ccccc2)c1N`, the GI50 in the assay with LOX IMVI melanoma, in the assay with SF-539 CNS, with MDA-MB-435, in the assay with MCF7 breast, in the assay with U251 CNS and with NCI-H23 lung was greater than 25 µM throughout. Moreover, the GI50 in the assay with OVCAR-5 ovarian, in the assay on SF-268 CNS, with HCT-116 colon and with HL-60(TB) leukemia was greater than 25 µM each time. In addition, the TGI in the assay on LOX IMVI melanoma, in the assay on SF-539 CNS, with MDA-MB-435, with MCF7 breast, with U251 CNS and in the assay on NCI-H23 lung was greater than 25 µM throughout. Moreover, the TGI with OVCAR-5 ovarian, with SF-268 CNS, in the assay on HCT-116 colon and in the assay on HL-60(TB) leukemia was greater than 25 µM in each case.
